Experimental data taken from US20130131034A1, “DERIVATIVES OF AMINOINDANES, THEIR PREPARATION AND THEIR APPLICATION IN THERAPEUTICS” (SANOFI, priority 2010, published 2013).
Structures can show the parent of a compound that is named as a salt.

Row | Structure (SMILES) | melting point [°C]
1 | COc1ccc2c(c1)[C@@H](Oc1ccc3c(c1)CCC(=O)N3)[C@H](N1CCC[C@@H](N)C1)C2 (as salt: HCl) [Compound 131, 6-({(1R,2R)-2-[(3R)-3-aminopiperidin-1-yl]-6-methoxy-2,3-dihydro-1H-inden-1-yl}oxy)-3,4-dihydroquinolin-2(1H)-one] | 145.6
2 | N[C@@H]1CCCN([C@@H]2Cc3ccccc3[C@H]2Oc2cc3c(cc2Cl)NC(=O)CC3)C1 (as salt: HCl) [Compound 132, 6-({(1R,2R)-2-[(3R)-3-aminopiperidin-1-yl]-2,3-dihydro-1H-inden-1-yl}oxy)-7-chloro-3,4-dihydroquinolin-2(1H)-one] | 183.7

The next lines start with the values.

Row | melting point [°C] | Structure (SMILES)
3 | 93 | CC(C)(N)C1CN([C@@H]2Cc3ccccc3[C@H]2Oc2ccc(C#N)cc2Cl)C1 (as salt: HCl) [Compound 125, 4-({(1R,2R)-2-[3-(2-aminopropan-2-yl)azetidin-1-yl]-2,3-dihydro-1H-inden-1-yl}oxy)-3-chlorobenzonitrile]
4 | 172 | N#Cc1ccc(O[C@@H]2c3cccnc3C[C@H]2N2CCC[C@@H](N)C2)c(Cl)c1 (as salt: HCl) [Compound 137, 4-({(5R,6R)-6-[(3R)-3-aminopiperidin-1-yl]-6,7-dihydro-5H-cyclopenta[b]pyridin-5-yl}oxy)-3-chlorobenzonitrile]
5 | 162 | CS(=O)(=O)c1ccc2c(c1)[C@@H](Oc1ccc(C#N)cc1Cl)[C@H](N1CCC[C@@H](N)C1)C2 (as salt: HCl) [Compound 123, 4-{[(1R,2R)-2-[(3R)-3-aminopiperidin-1-yl]-6-(methylsulfonyl)-2,3-dihydro-1H-inden-1-yl]oxy}-3-chlorobenzonitrile]
6 | 180 | N#Cc1ccc(O[C@@H]2c3ncccc3C[C@H]2N2CCC[C@@H](N)C2)c(Cl)c1 (as salt: HCl) [Compound 138, 4-({(6R,7S)-6-[(3R)-3-aminopiperidin-1-yl]-6,7-dihydro-5H-cyclopenta[b]pyridin-7-yl}oxy)-3-chlorobenzonitrile]
